Data as given in patent publication US10858369B2, “Pseudopolymorphic forms of a HIV protease inhibitor” (Janssen Sciences Ireland Unlimited Company, priority 2002, dated 2020).
≈ marks a conversion by molar mass, not a printed value.

What was measured:
[1] = Fractions of Form B characterized with TG, DSC and IR; type: physicochemical; design: key to IR: ~Hydrate, Ref: ~hydrate, Ref: identical with reference
Description: Different fractions of Form B were characterized with thermogravimetry (TG), differential scanning calorimetry (DSC) and infrared spectroscopy (IR).

[2] = Aqueous solubility in solvents with different pH (excess solute equilibrated at 20° C., UV spectrometry); type: physicochemical
Description: Further solubility investigations were performed in function of pH. […] An excess of the solute was equilibrated with the solvent at 20° C. for at least 24 hours. After removing the undissolved compound, the concentration in solution was determined using UV spectrometry.
Aqueous solubilities of Form B were measured in solvents with different pH. An excess of the solute was equilibrated with the solvent at 20° C. for at least 24 hours. After removing the undissolved compound, the concentration in solution was determined using UV spectrometry.
Aqueous solubilities of Form K were measured in solvents with different pH. An excess of the solute was equilibrated with the solvent at 20° C. for at least 48 hours. After removing the undissolved compound, the concentration in solution was determined using UV spectrometry.

[3] = Adsorption-Desorption tests (vapor sorption, weight change with respect to atmospheric humidity, 25° C.); type: physicochemical
Description: drying temperature: 40° C.
equilibrium: ≤0.05% in 5 min. or 60 min.
data interval: 0.05% or 2 min.
At the drying step about 0.6% weight loss was registered.
About 21 mg of Form K were transferred into a VTI vapor sorption analyzer model SGA100 and the weight change with respect to the atmospheric humidity was recorded at the following conditions:
drying temperature: 30° C.
data interval: 0.05% or 2.0 min.
Form K is hygroscopic. […] Form K adsorbed up to 1.5% water at high relative humidity.
A different study of the adsorption and desorption of water by Form K at 25° C. at different conditions of relative humidity was investigated on an amount of about 18 mg of the mesylate solvate. The weight change as a function of relative humidity was registered.

[4] = Adsorption-Desorption Hydratation Tests; type: physicochemical; conditions: 25° C., RH cycle repeated 11 times
Description: equilibrium: ≤0.0005% in 5 min. or 90 min.
data interval: 0.05% or 2 min
cycle RH (%) adsorption/desorption: 5.95 repeat the cycle 11 times
At the end of this test a loss of weight of 5.2% was registered. […] The ADS/DES hydratation test curves are collected in FIG. 19.

[5] = Solubility in function of HPβCD (hydroxpropyl-β-cyclodextrin); type: physicochemical; conditions: 2 days at 20° C.
Description: An excess of product was equilibrated with the solvent during 2 days at 20° C. After removing the undissolved compound, the concentration in solution was determined using UV spectrometry.

[6] = Randomized, placebo-controlled, double-blind, multiple dose escalation trial: safety, tolerability and pharmacokinetics after oral administration
[7] = Thermogravimetry of Form A, before and after Adsorption/Desorption tests, and at 25° C. under dry nitrogen; type: physicochemical
Description: The TG curve was recorded on a TA Instrument Hi-Res TGA 2950 thermogravimeter at the following conditions:
initial temperature: room temperature
final condition: 300° C. or <80[(w/w) %]
The loss of weight at temperatures up to 80° C. is mainly due to the evaporation of solvent (water) present in the sample. The loss of weight at temperatures above 80° C. is mainly due to the evaporation of solvent (ethanolate) present in the sample.
The loss of weight at 25° C. after 10 hours was around 0.6%. This was due to the evaporation of solvent.

[8] = Approximate solubility in different solvents at approximate 23° C.; type: physicochemical; conditions: thermodynamic from solid
[9] = initial drying step (drying temperature 40° C. Form A, 30° C. Form K)
[10] = different study, about 18 mg, 25° C., FIG. 26

CC(C)CN(C[C@@H](O)[C@H](Cc1ccccc1)NC(=O)OC1CO[C@H]2OCC[C@@H]12)S(=O)(=O)c1ccc(N)cc1 (single isomer, unassigned) [Form B fraction 1]
IR ([1]; after ADS/DES): ±Hydrate, | TG % weight change <100° C. ([1]; after ADS/DES): 4.30% | DSC Max (° C.) ([1]; fraction as such): 69.1 °C | IR ([1]; fraction as such): Hydrate, Ref | TG % weight change <100° C. ([1]; fraction as such): 5.65%

CC(C)CN(C[C@@H](O)[C@H](Cc1ccccc1)NC(=O)O[C@H]1CO[C@H]2OCC[C@H]21)S(=O)(=O)c1ccc(N)cc1 [Form B, (3R,3aS,6aR)-hexahydrofuro [2,3-b] furan-3-yl (1S,2R)-3-[[(4-aminophenyl)sulfonyl] (isobutyl)amino]-1-benzyl-2-hydroxypropylcarbamate]
solubility ([2]; 0.1N HCl (pH 1.1), at least 24 hours): 150 (pH 1.1) mg/100 ml solution | solubility ([2]; Buffer pH 2 (citrate/HCl) (pH 2.0), at least 24 hours): 23 (pH 2.0) mg/100 ml solution | solubility ([2]; Buffer pH 3 (citrate/HCl) (pH 3.0), at least 24 hours): 13 (pH 3.0) mg/100 ml solution | solubility ([2]; Buffer pH 4 (citrate/HCl) (pH 4.0), at least 24 hours): 12 (pH 4.0) mg/100 ml solution | solubility thermodynamic ([2]; pH 0.14, aqueous buffer, 1.0N HCl (pH 0.14), at least 24 hours): 5100 µg/mL (≈ 9.31 mM) | solubility thermodynamic ([2]; pH 5.1, water, Water (pH 5.1), at least 24 hours): 100 µg/mL (≈ 0.183 mM) | hygroscopicity ([3]; 25° C.): hygroscopic | obtained product after ADS/DES ([3]; 25° C.): mixture of hydrate and amorphous product | water remained on the sample after the desorption cycle ([3]; 25° C.): about 1.2% | weight loss at the drying step [3, 9]: about 5.6%

CC(C)CN(C[C@@H](O)[C@H](Cc1ccccc1)NC(=O)OC1CO[C@H]2OCC[C@@H]12)S(=O)(=O)c1ccc(N)cc1 (single isomer, unassigned) [Form B fraction 2]
DSC Max (° C.) ([1]; after 5 d 40° C./75% RH): 74.1 °C | IR ([1]; after 5 d 40° C./75% RH): ~Hydrate, Ref | TG % weight change <100° C. ([1]; after 5 d 40° C./75% RH): 3.56% | DSC Max (° C.) ([1]; fraction as such): 75.6 °C | IR ([1]; fraction as such): ~Hydrate, Ref | TG % weight change <100° C. ([1]; fraction as such): 5.91%

CC(C)CN(C[C@@H](O)[C@H](Cc1ccccc1)NC(=O)O[C@H]1CO[C@H]2OCC[C@H]21)S(=O)(=O)c1ccc(N)cc1 [Form K, (3R,3aS,6aR)-hexahydrofuro [2,3-b] furan-3-yl (1S,2R)-3-[[(4-aminophenyl)sulfonyl] (isobutyl)amino]-1-benzyl-2-hydroxypropylcarbamate]
solubility ([2]; 20% HPβCD in water (pH 1.6), at least 48 hours): 2100 (pH 1.6) mg/100 ml solution | solubility thermodynamic ([2]; pH 2, aqueous buffer, 0.01N HCl (pH 2.0), at least 48 hours): 240 µg/mL (≈ 0.438 mM) | solubility thermodynamic ([2]; pH 2, aqueous buffer, Buffer pH 2 (citrate/HCl) (pH 2.0), at least 48 hours): 210 µg/mL (≈ 0.383 mM) | solubility thermodynamic ([2]; pH 3, aqueous buffer, Buffer pH 3 (citrate/HCl) (pH 3.0), at least 48 hours): 120 µg/mL (≈ 0.219 mM) | solubility thermodynamic ([2]; pH 3.3, water, Water (pH 3.3), at least 48 hours): 190 µg/mL (≈ 0.347 mM) | solubility thermodynamic ([2]; pH 4, aqueous buffer, Buffer pH 4 (citrate/HCl) (pH 4.0), at least 48 hours): 110 µg/mL (≈ 0.201 mM) | hygroscopicity ([3]; 25° C.): hygroscopic | drying of the product during the desorption cycle ([3]; 25° C., about 21 mg, FIG. 25): dried completely | weight loss at the drying step ([3]; different study, about 18 mg of the mesylate solvate, FIG. 26): about 0.6% | drying of the product during the desorption cycle [3, 10]: dried completely | hygroscopicity [3, 10]: slightly hygroscopic | weight loss at the drying step [3, 9]: 0.3%

CC(C)CN(C[C@@H](O)[C@H](Cc1ccccc1)NC(=O)O[C@H]1CO[C@H]2OCC[C@H]21)S(=O)(=O)c1ccc(N)cc1 [Form A, (3R,3aS,6aR)-hexahydrofuro [2,3-b] furan-3-yl (1S,2R)-3-[[(4-aminophenyl)sulfonyl] (isobutyl)amino]-1-benzyl-2-hydroxypropylcarbamate]
solubility ([2]; Water (pH 5.9), at least 24 hours): 16 (pH 5.9) mg/100 ml solution | solubility thermodynamic ([2]; pH 0.2, aqueous buffer, 1.0N HCl (pH 0.2), at least 24 hours): 6200 µg/mL (≈ 11.3 mM) | solubility thermodynamic ([2]; pH 1.1, aqueous buffer, 0.1N HCl (pH 1.1), at least 24 hours): 830 µg/mL (≈ 1.52 mM) | solubility thermodynamic ([2]; pH 2, aqueous buffer, Buffer pH 2 (citrate/HCl) (pH 2.0), at least 24 hours): 180 µg/mL (≈ 0.329 mM) | solubility thermodynamic ([2]; pH 2.1, aqueous buffer, 0.01N HCl (pH 2.1), at least 24 hours): 180 µg/mL (≈ 0.329 mM) | solubility thermodynamic ([2]; pH 3, aqueous buffer, Buffer pH 3 (citrate/HCl) (pH 3.0), at least 24 hours): 100 µg/mL (≈ 0.183 mM) | solubility thermodynamic ([2]; pH 4, aqueous buffer, Buffer pH 4 (citrate/HCl) (pH 4.0), at least 24 hours): 90 µg/mL (≈ 0.164 mM) | form after the hydratation test [4]: transferred into a hydrated form | loss of weight at the end of the test [4]: 5.2% | solubility ([5]; 5% HPβCD in water (pH = 5.8)): 2.4 (pH = 5.8) mg/ml solution | solubility ([5]; 10% HPβCD in water (pH = 6.0)): 6.5 (pH = 6.0) mg/ml solution | solubility ([5]; 20% HPβCD in water (pH = 6.0)): 17 (pH = 6.0) mg/ml solution | solubility ([5]; 40% HPβCD in water (pH = 5.9)): 40 (pH = 5.9) mg/ml solution | solubility ([5]; Water (pH = 5.9)): 0.16 (pH = 5.9) mg/ml solution | hygroscopicity ([3]; 25° C.): not hygroscopic | loss of weight during the desorption cycle ([3]; 25° C.): 1.4% | obtained product after ADS/DES ([3]; 25° C.): mixture of ethanolate form and hydrated form | weight loss at the drying step [3, 9]: about 0.6% | unchanged Form A excreted in the urine ([6]; all dose levels): Less than 2% | time to reach steady-state plasma concentrations ([6]; oral, repeated dosing b.i.d. or t.i.d., healthy subjects): ≤ 3 days | dose-proportionality of Cmax (maximum conc.) ([6]; with respect to dose per intake): dose-proportional | loss of weight (TG) ([7]; 25° C. under dry nitrogen atmosphere, after 10 hours): around 0.6% | TG (% weight change) >80° C. ([7]; Form A as such): 7.1% | TG (% weight change) Up to 80° C. ([7]; Form A as such): 0.3% | TG (% weight change) >80° C. ([7]; after A/D hydratation test): 0.5% | TG (% weight change) Up to 80° C. ([7]; after A/D hydratation test): 5.4% | TG (% weight change) >80° C. ([7]; after ADS/DES): 4.0% | TG (% weight change) Up to 80° C. ([7]; after ADS/DES): 2.9% | solubility ([8]; organic solvent or mixture, 1-Methoxy-2-propanol): 160000 to 213000 µg/mL (≈ 292 to 389 mM) | solubility ([8]; organic solvent or mixture, 2-Propanol): < 3400 µg/mL | solubility ([8]; organic solvent or mixture, Acetone): 106000 to 211000 µg/mL (≈ 194 to 385 mM) | solubility ([8]; organic solvent or mixture, Dichloromethane): 105000 to 209000 µg/mL (≈ 192 to 382 mM) | solubility ([8]; organic solvent or mixture, Ethanol absolute): < 3400 µg/mL | solubility ([8]; organic solvent or mixture, Ethylacetate): 71000 to 107000 µg/mL (≈ 130 to 195 mM) | solubility ([8]; organic solvent or mixture, Ethylmethylketone): 102000 to 204000 µg/mL (≈ 186 to 372 mM) | solubility ([8]; organic solvent or mixture, Heptane): < 3400 µg/mL | solubility ([8]; organic solvent or mixture, Isopropylether): < 3400 µg/mL | solubility ([8]; organic solvent or mixture, Methacyanate): > 200000 µg/mL | solubility ([8]; organic solvent or mixture, Methanol): < 3400 µg/mL | solubility ([8]; organic solvent or mixture, Tetrahydrofurane): 102000 to 203000 µg/mL (≈ 186 to 371 mM) | solubility ([8]; organic solvent or mixture, Toluene): < 3500 µg/mL | solubility ([8]; water): < 3500 µg/mL

CC(C)CN(C[C@@H](O)[C@H](Cc1ccccc1)NC(=O)OC1CO[C@H]2OCC[C@@H]12)S(=O)(=O)c1ccc(N)cc1 (single isomer, unassigned) [Form B fraction 3]
DSC Extra (° C.) ([1]; after 5 d 40° C./75% RH): 62.8 °C | DSC Max (° C.) ([1]; after 5 d 40° C./75% RH): 77.4 °C | IR ([1]; after 5 d 40° C./75% RH): ±Hydrate, | TG % weight change <100° C. ([1]; after 5 d 40° C./75% RH): 2.33% | DSC Extra (° C.) ([1]; fraction as such): 67.8 °C | DSC Max (° C.) ([1]; fraction as such): 77.0 °C | IR ([1]; fraction as such): ±Hydrate, | TG % weight change <100° C. ([1]; fraction as such): 3.13%
